How the values were obtained:
[1] = test system: HER2-positive breast cancer cell line JIMT-1; assay: MTS cell viability assay, JIMT-1; assay type: cell-based, human; conditions: 72 hours
Experimental: A human triple-negative breast cancer (TNBC) cell line MDA-MB-231 (Cell seeding numbers: 1(M231)×10^4 cells/wells (confluency ≥25%) and an HER2-positive breast cancer (HER2+BC) cell line JIMT-1 (Cell seeding numbers: 1.2 (JIMT)×10^4 cells/wells (confluency ≥25%) were used in the experiment.
The cell lines were cultured in a Dulbecco's modified Eagle's medium (DMEM) containing 10% fetal bovine serum (FBS), streptomycin-penicillin (100 U/mL) and Fungizone (0.625 μg/mL) in an environment of 5% CO2 and 37° C., respectively.
In the human breast cancer cell lines MDA-MB-231 and JIMT-1, thiobenzimidazole derivatives of Chemical Formulas 1-1, 1-2, 1-3, 1-5, 1-6, 1-7, 1-8, 1-1-11, 1-12, 1-13, 1-14, 1-15, 1-16, 1-17, 1-19, 1-20, 1-21, and 1-22 were treated at various concentrations of 0, 0.5, 1, and 5 μM for 72 hours, respectively, and then cell viability was measured by an MTS assay. In the MTS assay, the cells were attached to a 96 well plate for 24 hours, treated with the thiobenzimidazole derivatives for 72 hours, and then developed with MTS (3-(4,5-dimethylthiazol-2-yl)-5-(3-carboxymethoxyphenyl)-2-(4-sulfophenyl)-2H-tetrazolium) for 4 hours, and then absorbance was measured at 490 nm using a Spectramax Plus384 microplate analyzer. […]

[2] = test system: HER2-positive breast cancer cell line BT474; assay: MTS cell viability assay, BT474; assay type: cell-based; conditions: 72 hours
Experimental: In the human breast cancer cell lines MDA-MB-231 and JIMT-1, thiobenzimidazole derivatives of Chemical Formulas 1-1, 1-2, 1-3, 1-5, 1-6, 1-7, 1-8, 1-1-11, 1-12, 1-13, 1-14, 1-15, 1-16, 1-17, 1-19, 1-20, 1-21, and 1-22 were treated at various concentrations of 0, 0.5, 1, and 5 μM for 72 hours, respectively, and then cell viability was measured by an MTS assay. In the MTS assay, the cells were attached to a 96 well plate for 24 hours, treated with the thiobenzimidazole derivatives for 72 hours, and then developed with MTS (3-(4,5-dimethylthiazol-2-yl)-5-(3-carboxymethoxyphenyl)-2-(4-sulfophenyl)-2H-tetrazolium) for 4 hours, and then absorbance was measured at 490 nm using a Spectramax Plus384 microplate analyzer. […] The HER2-positive breast cancer cell line BT474 sensitive to Trastuzumab and the HER2-positive breast cancer cell line JIMT-1 resistant to Trastuzumab were treated with the thiobenzimidazole derivative of Chemical Formula 1-3 prepared above and its hydrochloride (Compound 1-23) at the same concentrations of […], 0.1, 0.5, 1, 5, and 10 μM for 72 hours, and then cell viability and IC50 were measured by an MTS assay.

[3] = test system: cancer cells; assay: Annexin V/PI staining; assay type: cell-based; conditions: 0.1, 0.25, and 0.5 μM for 72 hours
Experimental: In addition, in order to confirm the apoptosis-inducing effect of the derivative of Chemical Formula 1-3, the control (DMSO) and the derivative of Chemical Formula 1-3 were treated at concentrations of 0.1, 0.25, and 0.5 μM for 72 hours, and then the degree of apoptosis was confirmed by Annexin V/PI staining.

[4] = test system: JIMT-1 cell line; assay: DNA content analysis by flow cytometry (PI), JIMT-1; assay type: cell-based, human; conditions: 0.1, 0.25 and 0.5 μM for 72 hours
Experimental: (§1) The degree of apoptosis of cancer cells induced by the thiobenzimidazole derivative of Chemical Formula 1-3 was measured through DNA content analysis using a flow cytometry. The SKBR3, BT474 and JIMT-1 cell lines were treated with a control (DMSO) and the derivative of Chemical Formula 1-3 at concentrations of 0.1, 0.25 and 0.5 μM for 72 hours, and then the cells were harvested, immobilized with 95% ethanol containing 0.5% Tween-20 for 24 hours, and then stained with propidium iodide (PI, 50 μg/mL) and RNase (50 μg/mL) for 30 minutes. Thereafter, the degree of apoptosis of cancer cells was analyzed using a flow cytometer.
(§2) The result of such apoptosis was shown on the cell cycle as a Sub G1 site, and the ratio of Sub G1 was expressed numerically and shown in FIG. 8.

[5] = test system: HER2-positive breast cancer cell line SKBR3; assay: Cell viability assay, SKBR3; assay type: cell-based; conditions: SKBR3 (sensitive to Trastuzumab); 72 hours
[6] = test system: SKBR3 cell line; assay: DNA content analysis by flow cytometry (PI), SKBR3; assay type: cell-based; conditions: 0.1, 0.25 and 0.5 μM for 72 hours
Experimental: as §1, §2

[7] = test system: BT474 cell line; assay: DNA content analysis by flow cytometry (PI), BT474; assay type: cell-based; conditions: 0.1, 0.25 and 0.5 μM for 72 hours
Experimental: as §1, §2

| melting point [°C] | IC50 ([1]; Homo sapiens, JIMT-1, MTS) [nM] | IC50 ([2]; Homo sapiens, BT-474, BT474, MTS) [nM] | Compound | inhibitory effect on cell proliferation ([1]; JIMT-1 (resistant to Trastuzumab)) | inhibitory effect on cell proliferation ([2]; BT474 (sensitive to Trastuzumab)) | early and late apoptosis (Annexin V/PI) [3] | G2/M phase cell cycle arrest [4] | apoptosis (Sub-G1 population) [4] | inhibitory effect on cell proliferation [5] | G2/M phase cell cycle arrest [6] | apoptosis (Sub-G1 population) [6] | G2/M phase cell cycle arrest [7] | apoptosis (Sub-G1 population) [7] |
| --- | --- | --- | --- | --- | --- | --- | --- | --- | --- | --- | --- | --- | --- |
| 232 to 233 | – | – | COC(=O)Nc1nc2cc(Sc3ccc(F)cc3)ccc2[nH]1 [Chemical Formula 1-1, methyl 5-(4-fluorophenyl-thio)-1H-benzo[d]imidazol-2-ylcarbamate] | – | – | – | – | – | – | – | – | – | – |
| – | 448 | 2180 | COC(=O)Nc1nc2cc(Sc3ccc(N4CCN(C)CC4)cc3)ccc2[nH]1 [Chemical Formula 1-3, methyl (5-((4-(4-methylpiperazin-1-yl)phenyl)thio)-1H-benzo[d]imidazol-2-yl) carbamate] | inhibitory effect on cell proliferation was exhibited | inhibitory effect on cell proliferation was exhibited | early and late apoptosis were effectively induced in a concentration-dependent manner | arrested the G2/M phase cell cycle | significantly induced apoptosis (Sub-G1 population) | inhibitory effect on cell proliferation was exhibited | arrested the G2/M phase cell cycle | significantly induced apoptosis (Sub-G1 population) | arrested the G2/M phase cell cycle | significantly induced apoptosis (Sub-G1 population) |

Source: US20230391753A1, “THIOBENZIMIDAZOLE DERIVATIVE OR PHARMACEUTICALLY ACCEPTABLE SALT THEREOF AND USE THEREOF” (KOREA UNIVERSITY RESEARCH AND BUSINESS FOUNDATION, priority 2020, published 2023)
